Experimental data reported in US7780978B2, “Oral pharmaceutical compositions and methods of using the same” (Childrens Hospital Los Angeles, priority 2003, dated 2010).

Assays:
[1] = Steady state plasma and tissue levels of 4-HPR in mice fed or gavaged LXS compositions vs capsule contents (HPLC); format: in vivo; settings: mice, 120, 250 and 560 mg/kg/day
Procedure: FIG. 1. Comparison of 4-HPR in LXS matrix vs Capsule Formulation at 120 mg/kg/day. Cohorts of five mice were feed with 120 mg/kg/day of 4-HPR formulated in various LXS compositions, or 4-HPR expressed from capsules, mixed with mouse chow or Slim-Fast®, divided BID, ×4.5 days. Animals were sacrificed 3 hrs after the last dose and 4-HPR levels in plasma and tissues were assayed by HPLC. […] PLASMA: G1 vs capsule, P=0.006; LYM-X 5.59 vs capsule, P=0.06; LIVER: G1 vs capsule, P=0.013; LYM-X 5.59 vs capsule, P=0.045; LUNGS: G1 vs capsule, P=0.028; G2 vs capsule, P=0.05; KIDNEY: G1 vs capsule, P=0.007; LYM-X 5.59 vs capsule, P=0.06; BRAIN: G1 vs capsule, P=0.01; LYM-X 5.58 vs capsule, P=0.02. Statistical analysis by Student's t-test. Columns, in each set of columns, in sequence from left to right, represent LYM-X 5.57, LYM-X 5.58, LYM-X 5.60, LYM-X 5.59, Capsule Lot #R-6124, LYM-X 5.60 G1 (SLIMFAST™), and LYM-X 5.60 G2 (DI Water).
FIG. 2. Comparison of 4-HPR in LXS™ matrix vs Capsule Formulation at 250 mg/kg/day. […]
To test this hypothesis, we had various LXS™ compositions of 4-HPR prepared that varied in the LPC:MG:FA ratios of the LXS™ matrix. We then feed mice with equal doses of 4-HPR in the LXS™ compositions, or expressed as a slurry from the current oral 4-HPR capsules. […]

[2] = cited from earlier work

## CC1=C(/C=C/C(C)=C/C=C/C(C)=C/C(=O)Nc2ccc(O)cc2)C(C)(C)CCC1 [Fenretinide, all-trans-N-(4-hydroxyphenyl)retinamide]
[1]
  dose dependence of 4-HPR plasma and tissue levels: dose-dependent
[2]
  solubility in aqueous solution: minimally soluble
